Values of other authors in patent US20260283918A1, “AZELAIC ACID/BETAINE/PANTHENOL SELF-RECOGNITION DES SYSTEM AND PREPARATION METHOD” (Wuxi Zhiyan Biotechnology Co., LTD, priority 2023, published 2026).

Details: water and oil

SMILES: O=C(O)CCCCCCCC(=O)O [azelaic acid]
- solubility of azelaic acid: poor solubility in both water and oil
